From patent US20250179051A1, “PYRIMIDINLY-OXY-QUINOLINE BASED HERBICIDAL COMPOUNDS” (SYNGENTA CROP PROTECTION AG, priority 2022, published 2025)

Columns and labels:
Format in all cases: in vivo
Settings in all cases: 250 g/ha, evaluated after 13 days, five-point scale
[1] = tested on: Ipomoea hederacea (IPOHE); assay: Pre-emergence herbicide glasshouse test
Protocol: (§1) Seeds of a variety of test species are sown in standard soil in pots Amaranthus retoflexus (AMARE), Amaranthus palmeri (AMAPA), Echinochloa crus-galli (ECHCG), Ipomoea hederacea (IPOHE), Setaria faberi (SETFA). After cultivation for one day (pre-emergence) or after 8 days cultivation (post-emergence) under controlled conditions in a glasshouse (at 24/16° C., day/night; 14 hours light; 65% humidity), the plants are sprayed with an aqueous spray solution derived from the formulation of the technical active ingredient in acetone/water (50:50) solution containing 0.5% Tween 20 (polyoxyethelyene sorbitan monolaurate, CAS RN 9005-64-5). Compounds are applied at 250 g/ha unless otherwise stated. The test plants are then grown in a glasshouse under controlled conditions in a glasshouse (at 24/16° C., day/night; 14 hours light; 65% humidity) and watered twice daily. After 13 days for pre and post-emergence, the test is evaluated for the percentage damage caused to the plant. The biological activities are shown in the following table on a five-point scale (5=81-100%; 4=61-80%; 3=41-60%; 2=21-40%; 1=0-20%).

Setaria faberi (SETFA) [2] = assay: Pre-emergence herbicide glasshouse test
Protocol: as §1

[3] = tested on: Amaranthus palmeri (AMAPA); assay: Pre-emergence herbicide glasshouse test
Protocol: as §1

[4] = tested on: Echinochloa crus-galli (ECHCG); assay: Pre-emergence herbicide glasshouse test
Protocol: as §1

[5] = tested on: Amaranthus retoflexus (AMARE); assay: Pre-emergence herbicide glasshouse test
Protocol: as §1

[6] = tested on: Ipomoea hederacea (IPOHE); assay: Post-emergence herbicide glasshouse test
Protocol: as §1

Setaria faberi (SETFA) [7] = assay: Post-emergence herbicide glasshouse test
Protocol: as §1

[8] = tested on: Amaranthus palmeri (AMAPA); assay: Post-emergence herbicide glasshouse test
Protocol: as §1

[9] = tested on: Echinochloa crus-galli (ECHCG); assay: Post-emergence herbicide glasshouse test
Protocol: as §1

[10] = tested on: Amaranthus retoflexus (AMARE); assay: Post-emergence herbicide glasshouse test
Protocol: as §1

## C=CCON=CCCc1nc(C(F)(F)F)nc2cccc(Oc3ncc(Cl)cn3)c12 [Compound 1.011]
[1]
  percentage damage caused to the plant, IPOHE: 2 (2=21-40%)
Setaria faberi (SETFA) [2]
  percentage damage caused to the plant, SETFA: 5 (5=81-100%)
[3]
  percentage damage caused to the plant, AMAPA: 5 (5=81-100%)
[4]
  percentage damage caused to the plant, ECHCG: 4 (4=61-80%)
[5]
  percentage damage caused to the plant, AMARE: 5 (5=81-100%)
[6]
  percentage damage caused to the plant, IPOHE: 2 (2=21-40%)
Setaria faberi (SETFA) [7]
  percentage damage caused to the plant, SETFA: 4 (4=61-80%)
[8]
  percentage damage caused to the plant, AMAPA: 4 (4=61-80%)
[9]
  percentage damage caused to the plant, ECHCG: 4 (4=61-80%)
[10]
  percentage damage caused to the plant, AMARE: 5 (5=81-100%)

## CCNC(=O)CCc1nc(C(F)(F)F)nc2cccc(Oc3ncc(Cl)cn3)c12 [Compound 1.012, 3-[5-(5-chloropyrimidin-2-yl)oxy-2-(trifluoromethyl)quinazolin-4-yl]-N-ethyl-propanamide]
[1]
  percentage damage caused to the plant, IPOHE: 1 (1=0-20%)
Setaria faberi (SETFA) [2]
  percentage damage caused to the plant, SETFA: 1 (1=0-20%)
[3]
  percentage damage caused to the plant, AMAPA: 2 (2=21-40%)
[4]
  percentage damage caused to the plant, ECHCG: 1 (1=0-20%)
[5]
  percentage damage caused to the plant, AMARE: 1 (1=0-20%)
[6]
  percentage damage caused to the plant, IPOHE: 1 (1=0-20%)
Setaria faberi (SETFA) [7]
  percentage damage caused to the plant, SETFA: 1 (1=0-20%)
[8]
  percentage damage caused to the plant, AMAPA: 3 (3=41-60%)
[9]
  percentage damage caused to the plant, ECHCG: 1 (1=0-20%)
[10]
  percentage damage caused to the plant, AMARE: 2 (2=21-40%)

## FC(F)(F)c1ncc(-c2nc(C(F)(F)F)nc3cccc(Oc4ncc(Cl)cn4)c23)cn1 [Compound 1.013, 5-(5-chloropyrimidin-2-yl)oxy-2-(trifluoromethyl)-4-[2-(trifluoromethyl)pyrimidin-5-yl]quinazoline]
[1]
  percentage damage caused to the plant, IPOHE: 1 (1=0-20%)
Setaria faberi (SETFA) [2]
  percentage damage caused to the plant, SETFA: 1 (1=0-20%)
[3]
  percentage damage caused to the plant, AMAPA: 1 (1=0-20%)
[4]
  percentage damage caused to the plant, ECHCG: 1 (1=0-20%)
[5]
  percentage damage caused to the plant, AMARE: 1 (1=0-20%)
[6]
  percentage damage caused to the plant, IPOHE: 1 (1=0-20%)
Setaria faberi (SETFA) [7]
  percentage damage caused to the plant, SETFA: 1 (1=0-20%)
[8]
  percentage damage caused to the plant, AMAPA: 2 (2=21-40%)
[9]
  percentage damage caused to the plant, ECHCG: 1 (1=0-20%)
[10]
  percentage damage caused to the plant, AMARE: 2 (2=21-40%)

## Cc1ncc(-c2nc(C(F)(F)F)nc3cccc(Oc4ncc(Cl)cn4)c23)cn1 [Compound 1.014]
[1]
  percentage damage caused to the plant, IPOHE: 1 (1=0-20%)
Setaria faberi (SETFA) [2]
  percentage damage caused to the plant, SETFA: 1 (1=0-20%)
[3]
  percentage damage caused to the plant, AMAPA: 2 (2=21-40%)
[4]
  percentage damage caused to the plant, ECHCG: 1 (1=0-20%)
[5]
  percentage damage caused to the plant, AMARE: 2 (2=21-40%)
[6]
  percentage damage caused to the plant, IPOHE: 1 (1=0-20%)
Setaria faberi (SETFA) [7]
  percentage damage caused to the plant, SETFA: 1 (1=0-20%)
[8]
  percentage damage caused to the plant, AMAPA: 1 (1=0-20%)
[9]
  percentage damage caused to the plant, ECHCG: 1 (1=0-20%)
[10]
  percentage damage caused to the plant, AMARE: 1 (1=0-20%)

## Cc1cnc(Oc2cccc3nc(C(F)(F)F)nc(CCC4CC4)c23)nc1 [Compound 1.015, 4-(2-cyclopropylethyl)-5-(5-methylpyrimidin-2-yl)oxy-2-(trifluoromethyl)quinazoline]
[1]
  percentage damage caused to the plant, IPOHE: 3 (3=41-60%)
Setaria faberi (SETFA) [2]
  percentage damage caused to the plant, SETFA: 5 (5=81-100%)
[3]
  percentage damage caused to the plant, AMAPA: 5 (5=81-100%)
[4]
  percentage damage caused to the plant, ECHCG: 5 (5=81-100%)
[5]
  percentage damage caused to the plant, AMARE: 5 (5=81-100%)
[6]
  percentage damage caused to the plant, IPOHE: 3 (3=41-60%)
Setaria faberi (SETFA) [7]
  percentage damage caused to the plant, SETFA: 5 (5=81-100%)
[8]
  percentage damage caused to the plant, AMAPA: 2 (2=21-40%)
[9]
  percentage damage caused to the plant, ECHCG: 4 (4=61-80%)
[10]
  percentage damage caused to the plant, AMARE: 4 (4=61-80%)

## Cn1nc(-c2nc(C(F)(F)F)nc3cccc(Oc4ncc(Cl)cn4)c23)cc1C(F)F [Compound 1.016, 5-(5-chloropyrimidin-2-yl)oxy-4-[5-(difluoromethyl)-1-methyl-pyrazol-3-yl]-2-(trifluoromethyl)quinazoline]
[1]
  percentage damage caused to the plant, IPOHE: 1 (1=0-20%)
Setaria faberi (SETFA) [2]
  percentage damage caused to the plant, SETFA: 1 (1=0-20%)
[3]
  percentage damage caused to the plant, AMAPA: 2 (2=21-40%)
[4]
  percentage damage caused to the plant, ECHCG: 1 (1=0-20%)
[5]
  percentage damage caused to the plant, AMARE: 1 (1=0-20%)
[6]
  percentage damage caused to the plant, IPOHE: 2 (2=21-40%)
Setaria faberi (SETFA) [7]
  percentage damage caused to the plant, SETFA: 1 (1=0-20%)
[8]
  percentage damage caused to the plant, AMAPA: 2 (2=21-40%)
[9]
  percentage damage caused to the plant, ECHCG: 1 (1=0-20%)
[10]
  percentage damage caused to the plant, AMARE: 2 (2=21-40%)

## CC(=NOCC(F)(F)F)c1nc(C(F)(F)F)nc2cccc(Oc3ncc(Cl)cn3)c12 [Compound 1.018, 1-[5-(5-chloropyrimidin-2-yl)oxy-2-(trifluoromethyl)quinazolin-4-yl]-N-(2,2,2-trifluoroethoxy) ethanimine]
[1]
  percentage damage caused to the plant, IPOHE: 1 (1=0-20%)
Setaria faberi (SETFA) [2]
  percentage damage caused to the plant, SETFA: 1 (1=0-20%)
[3]
  percentage damage caused to the plant, AMAPA: 1 (1=0-20%)
[4]
  percentage damage caused to the plant, ECHCG: 1 (1=0-20%)
[5]
  percentage damage caused to the plant, AMARE: 1 (1=0-20%)
[6]
  percentage damage caused to the plant, IPOHE: 2 (2=21-40%)
Setaria faberi (SETFA) [7]
  percentage damage caused to the plant, SETFA: 1 (1=0-20%)
[8]
  percentage damage caused to the plant, AMAPA: 2 (2=21-40%)
[9]
  percentage damage caused to the plant, ECHCG: 1 (1=0-20%)
[10]
  percentage damage caused to the plant, AMARE: 2 (2=21-40%)

## FC(F)(F)c1nc(CCCC2CC2)c2c(Oc3ncc(Cl)cn3)cccc2n1 [Compound 1.019]
[1]
  percentage damage caused to the plant, IPOHE: 1 (1=0-20%)
Setaria faberi (SETFA) [2]
  percentage damage caused to the plant, SETFA: 5 (5=81-100%)
[3]
  percentage damage caused to the plant, AMAPA: 5 (5=81-100%)
[4]
  percentage damage caused to the plant, ECHCG: 4 (4=61-80%)
[5]
  percentage damage caused to the plant, AMARE: 4 (4=61-80%)
[6]
  percentage damage caused to the plant, IPOHE: 3 (3=41-60%)
Setaria faberi (SETFA) [7]
  percentage damage caused to the plant, SETFA: 5 (5=81-100%)
[8]
  percentage damage caused to the plant, AMAPA: 5 (5=81-100%)
[9]
  percentage damage caused to the plant, ECHCG: 2 (2=21-40%)
[10]
  percentage damage caused to the plant, AMARE: 5 (5=81-100%)

## ON=CCCc1nc(C(F)(F)F)nc2cccc(Oc3ncc(Cl)cn3)c12 [Compound 1.021]
[1]
  percentage damage caused to the plant, IPOHE: 1 (1=0-20%)
Setaria faberi (SETFA) [2]
  percentage damage caused to the plant, SETFA: 3 (3=41-60%)
[3]
  percentage damage caused to the plant, AMAPA: 4 (4=61-80%)
[4]
  percentage damage caused to the plant, ECHCG: 3 (3=41-60%)
[5]
  percentage damage caused to the plant, AMARE: 4 (4=61-80%)
[6]
  percentage damage caused to the plant, IPOHE: 2 (2=21-40%)
Setaria faberi (SETFA) [7]
  percentage damage caused to the plant, SETFA: 2 (2=21-40%)
[8]
  percentage damage caused to the plant, AMAPA: 4 (4=61-80%)
[9]
  percentage damage caused to the plant, ECHCG: 2 (2=21-40%)
[10]
  percentage damage caused to the plant, AMARE: 5 (5=81-100%)

## CO/N=C\CCc1nc(C(F)(F)F)nc2cccc(Oc3ncc(Cl)cn3)c12 [Compound 1.022, (Z)-3-[5-(5-chloropyrimidin-2-yl)oxy-2-(trifluoromethyl)quinazolin-4-yl]-N-methoxy-propan-1-imine]
[1]
  percentage damage caused to the plant, IPOHE: 4 (4=61-80%)
Setaria faberi (SETFA) [2]
  percentage damage caused to the plant, SETFA: 5 (5=81-100%)
[3]
  percentage damage caused to the plant, AMAPA: 5 (5=81-100%)
[4]
  percentage damage caused to the plant, ECHCG: 5 (5=81-100%)
[5]
  percentage damage caused to the plant, AMARE: 5 (5=81-100%)
[6]
  percentage damage caused to the plant, IPOHE: 3 (3=41-60%)
Setaria faberi (SETFA) [7]
  percentage damage caused to the plant, SETFA: 4 (4=61-80%)
[8]
  percentage damage caused to the plant, AMAPA: 4 (4=61-80%)
[9]
  percentage damage caused to the plant, ECHCG: 4 (4=61-80%)
[10]
  percentage damage caused to the plant, AMARE: 4 (4=61-80%)

## CON1CCC(CCc2nc(C(F)(F)F)nc3cccc(Oc4ncc(Cl)cn4)c23)CC1 [Compound 1.023, 5-(5-chloropyrimidin-2-yl)oxy-4-[2-(1-methoxy-4-piperidyl)ethyl]-2-(trifluoromethyl)quinazoline]
[1]
  percentage damage caused to the plant, IPOHE: 1 (1=0-20%)
Setaria faberi (SETFA) [2]
  percentage damage caused to the plant, SETFA: 1 (1=0-20%)
[3]
  percentage damage caused to the plant, AMAPA: 4 (4=61-80%)
[4]
  percentage damage caused to the plant, ECHCG: 2 (2=21-40%)
[5]
  percentage damage caused to the plant, AMARE: 4 (4=61-80%)
[6]
  percentage damage caused to the plant, IPOHE: 3 (3=41-60%)
Setaria faberi (SETFA) [7]
  percentage damage caused to the plant, SETFA: 1 (1=0-20%)
[8]
  percentage damage caused to the plant, AMAPA: 4 (4=61-80%)
[9]
  percentage damage caused to the plant, ECHCG: 1 (1=0-20%)
[10]
  percentage damage caused to the plant, AMARE: 4 (4=61-80%)

## COCCCc1nc(C(F)(F)F)nc2cccc(Oc3ncc(Cl)cn3)c12 [Compound 1.024]
[1]
  percentage damage caused to the plant, IPOHE: 5 (5=81-100%)
Setaria faberi (SETFA) [2]
  percentage damage caused to the plant, SETFA: 4 (4=61-80%)
[3]
  percentage damage caused to the plant, AMAPA: 5 (5=81-100%)
[4]
  percentage damage caused to the plant, ECHCG: 5 (5=81-100%)
[5]
  percentage damage caused to the plant, AMARE: 5 (5=81-100%)
[6]
  percentage damage caused to the plant, IPOHE: 3 (3=41-60%)
Setaria faberi (SETFA) [7]
  percentage damage caused to the plant, SETFA: 4 (4=61-80%)
[8]
  percentage damage caused to the plant, AMAPA: 3 (3=41-60%)
[9]
  percentage damage caused to the plant, ECHCG: 5 (5=81-100%)
[10]
  percentage damage caused to the plant, AMARE: 4 (4=61-80%)
